Earlier results, collected in patent US20050214389A1, “Beta-carotene enriched extract from water hyacinth eichhornia crassipes” (Council of Scientific and Industrial Research, priority 2004, published 2005).

Test system: polyamine oxidase
Settings: purified polyamine oxidase from leaves of water hyacinth

Row | inhibition of the enzyme | SMILES
1 | strong inhibitors | NCCCCCCCCN [Octamethylenediamine]
2 | strong inhibitors | CCN(CC)CCCC(C)Nc1c2ccc(Cl)cc2nc2ccc(OC)cc12 (stereo not shown) [quinacrine]

Row | SMILES | inhibition of the enzyme
3 | O=C(O)c1cc[c]([Hg][Cl])cc1 [p-chloromercuribenzoate] | without effect

Same assay, conditions: substrate of purified polyamine oxidase from leaves of water hyacinth

Row | Km | SMILES
4 | 28 mM | NCCCCNCCCN [spermidine]
5 | 20 mM | NCCCNCCCCNCCCN [spermine]

Test system: Enterobacter sp. F2
Settings: concentrations of from 10-7 to 10-2 mol/L

Row | SMILES | chemotaxis (attraction of F2)
6 | C[C@H](N)C(=O)O [alanine] | strongly attracted
7 | N=C(N)NCCC[C@H](N)C(=O)O [arginine] | not
8 | NC(=O)C[C@H](N)C(=O)O [asparagine] | not
9 | N[C@@H](CS)C(=O)O [cysteine] | not
10 | NCCCC(=O)O [gamma amino butyric acid] | strongly attracted
11 | N[C@@H](CCC(=O)O)C(=O)O [glutamate] | some degrees
12 | NC(=O)CC[C@H](N)C(=O)O [glutamine] | not
13 | NCC(=O)O [glycine] | strongly attracted
14 | N[C@@H](Cc1c[nH]cn1)C(=O)O [histidine] | some degrees
15 | CC[C@H](C)[C@H](N)C(=O)O [isoleucine] | not
16 | CC(C)C[C@H](N)C(=O)O [leucine] | strongly attracted
17 | NCCCC[C@H](N)C(=O)O [lysine] | not
18 | CSCC[C@H](N)C(=O)O [methionine] | strongly attracted
19 | N[C@@H](Cc1ccccc1)C(=O)O [phenylalanine] | not
20 | O=C(O)[C@@H]1CCCN1 [proline] | not
21 | N[C@@H](CO)C(=O)O [serine] | strongly attracted
22 | C[C@@H](O)[C@H](N)C(=O)O [threonine] | some degrees
23 | N[C@@H](Cc1c[nH]c2ccccc12)C(=O)O [tryptophan] | not
24 | N[C@@H](Cc1ccc(O)cc1)C(=O)O [tyrosine] | not
25 | CC(C)[C@H](N)C(=O)O [valine] | strongly attracted
